{
  "source": "paper PMC9820345",
  "about": "“Metal Complexes of a 5-Nitro-8-Hydroxyquinoline-Proline Hybrid with Enhanced Water Solubility Targeting Multidrug Resistant Cancer Cells” (International Journal of Molecular Sciences, 2022)",
  "assay": "n-Octanol/water distribution coefficients, shake-flask method",
  "format": "physicochemical",
  "conditions": "pH 7.40 (20 mM phosphate buffer); 100 mM chloride; 25.0 °C",
  "method": "The traditional shake-flask method was used to obtain distribution coefficients of the ligands as well as of the complexes in n-octanol/buffered aqueous solution (20 mM phosphate, pH = 7.40 or 10 mM MES, pH 5.50) at different chloride ion concentrations (4, 24 and 100 mM) using UV-vis spectrophotometry (Agilent Cary 8454 diode array spectrophotometer, Santa Clara, CA, USA) for the analysis. The measurement and data evaluation were performed as described in our former work.",
  "data": [
    {"smiles": "Cc1ccc(C(C)C)cc1.O=C(O)[C@@H]1CCC[NH+]1Cc1cc([N+](=O)[O-])c2ccc[n+]3c2c1[O][Ru-]3[Cl].[Cl-]", "note": "[RuCym-HQNO2-L-Pro, [RuCym(HQNO2-L-Pro)Cl]Cl]", "values": [
      {"measurement": "log D7.4", "result": "+0.06 ± 0.01"}
    ]}
  ]
}
